Data published in patent publication US4900725A, “Steroids including a spiro ring in position 17, the process for their preparation and their use” (Roussel Uclaf, priority 1986, dated 1990).

Assays:
[1] = biological target: T1, Progestogene receptor of rabbit uterus (Oryctolagus cuniculus, UniProt P06186); experiment: Progestogene receptor of rabbit uterus, relative bonding affinity (RBA); assay type: binding; conditions: for Relative bonding affinity (RBA), Progestogen, 2 H: incubation 2 H at 0° C.; for Relative bonding affinity (RBA), Progestogen, 2 H / Relative bonding affinity (RBA), Progestogen, 24 H: versus cold reference hormone, tritiated R; for Relative bonding affinity (RBA), Progestogen, 24 H: incubation 24 H at 0° C.
T1 construct: the uterus is removed, weighed and homogenized at 0° C; from tissue; host or cells: uterus of estradiol-treated impuberal rabbits, 105,000 g supernatant (cytosol)
T1 sequence (P06186 1-930): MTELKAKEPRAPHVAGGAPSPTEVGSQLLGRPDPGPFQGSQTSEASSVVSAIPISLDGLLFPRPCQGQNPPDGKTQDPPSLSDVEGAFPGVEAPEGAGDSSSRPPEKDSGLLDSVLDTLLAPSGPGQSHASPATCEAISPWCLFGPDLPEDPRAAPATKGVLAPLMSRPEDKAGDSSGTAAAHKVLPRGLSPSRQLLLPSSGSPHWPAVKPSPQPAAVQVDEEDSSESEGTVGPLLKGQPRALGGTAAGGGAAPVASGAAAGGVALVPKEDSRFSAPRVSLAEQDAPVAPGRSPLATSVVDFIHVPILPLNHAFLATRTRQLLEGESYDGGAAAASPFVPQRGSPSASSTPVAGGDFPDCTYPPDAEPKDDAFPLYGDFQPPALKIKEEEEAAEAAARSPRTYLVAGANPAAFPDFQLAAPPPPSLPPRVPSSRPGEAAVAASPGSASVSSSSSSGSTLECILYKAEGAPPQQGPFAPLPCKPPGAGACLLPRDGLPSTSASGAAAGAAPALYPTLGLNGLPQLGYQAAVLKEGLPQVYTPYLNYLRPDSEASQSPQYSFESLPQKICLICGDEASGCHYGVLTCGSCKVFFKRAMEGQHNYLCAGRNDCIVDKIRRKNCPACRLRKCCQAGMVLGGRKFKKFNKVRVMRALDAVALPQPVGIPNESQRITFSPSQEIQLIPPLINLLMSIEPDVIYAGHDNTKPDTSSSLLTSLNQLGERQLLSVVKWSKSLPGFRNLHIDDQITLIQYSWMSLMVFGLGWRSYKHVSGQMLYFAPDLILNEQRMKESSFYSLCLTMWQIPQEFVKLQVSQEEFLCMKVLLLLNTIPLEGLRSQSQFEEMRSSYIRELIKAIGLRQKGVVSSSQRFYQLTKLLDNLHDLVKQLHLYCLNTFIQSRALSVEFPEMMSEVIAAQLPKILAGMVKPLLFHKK
Description: Progestogene receptor of rabbit uterus
Impuberal rabbits weighing about 1 kg receive a cutaneous application of […] of estradiol. 5 days after this treatment, the animals are killed, the uterus is removed, weighed and homogenized at 0° C., using a Potter teflon-glass, in a buffered solution TS (tirs 10 mM, saccharose 0.25 M, HCl pH 7.4) (1 g of tissue for 50 ml of TS). The homogenate is then ultra-centrifuged (105,000 g×90 min.) at 0° C.
Aliquots of the supernatant so obtained are incubated at 0° C. for a time t, with a constant concentration (T) of tritiated product R (17,21-dimethyl-19-nor-4,9-pregnadiene-3,20-dione) in the presence of increasing concentrations (0-2500.10^-9 M either of R cold, or of cold progesterone, or of the cold product under test. The concentration (B) of bonded triated (R) is then measured in each incubate by the technique of adsorption on carbon dextran.
(§1) Calculation of the relative bonding affinity
(§2) The calculation of the relative bonding affinity (RBA) is the same for all the receptors.
(§3) The two following curves are drawn: the percentage of bonded tritiated hormone B/T as a function of the concentration of the cold reference hormone, and B/T as a function of the logarithm of the concentration of the cold product under test. The straight line of the equation [formula] is determined. B/T max=percentage of tritiated hormone bonded for an incubation of this tritiated hormone at the concentration (T). B/T min=percentage of tritiated hormone bonded for an incubation of this tritiated hormone at the concentration (T) in the presence of a great excess of cold hormone (2,500.10^-9 M).
(§4) The intersections of the straight line I50 with the curves enables the concentrations of the cold reference hormone (CH) and of the cold product under test (CX) to be evaluated which inhibit by 50% the bonding of the tritiated hormone on the receptor.
(§5) The relative bonding affinity (RBA) of the product under test is determined by the equation: [formula]

[2] = biological target: T2, Glucocorticoid receptor of the rat thymus (Rattus norvegicus, UniProt P06536); experiment: Glucocorticoid receptor of the rat thymus, relative bonding affinity (RBA); assay type: binding, rat (Sprague-Dawley); conditions: for Relative bonding affinity (RBA), Glucocorticoid, 4 H: incubation 4 H at 0° C.; for Relative bonding affinity (RBA), Glucocorticoid, 4 H / Relative bonding affinity (RBA), Glucocorticoid, 24 H: versus cold dexamethasone, tritiated dexamethasone; for Relative bonding affinity (RBA), Glucocorticoid, 24 H: incubation 24 H at 0° C.
T2 construct: the thymus is removed and homogenized at 0° C. in a buffer; from tissue; host or cells: thymus of adrenalectomized male Sprague-Dawley rats, 105,000 g supernatant (cytosol)
T2 sequence (P06536 1-795): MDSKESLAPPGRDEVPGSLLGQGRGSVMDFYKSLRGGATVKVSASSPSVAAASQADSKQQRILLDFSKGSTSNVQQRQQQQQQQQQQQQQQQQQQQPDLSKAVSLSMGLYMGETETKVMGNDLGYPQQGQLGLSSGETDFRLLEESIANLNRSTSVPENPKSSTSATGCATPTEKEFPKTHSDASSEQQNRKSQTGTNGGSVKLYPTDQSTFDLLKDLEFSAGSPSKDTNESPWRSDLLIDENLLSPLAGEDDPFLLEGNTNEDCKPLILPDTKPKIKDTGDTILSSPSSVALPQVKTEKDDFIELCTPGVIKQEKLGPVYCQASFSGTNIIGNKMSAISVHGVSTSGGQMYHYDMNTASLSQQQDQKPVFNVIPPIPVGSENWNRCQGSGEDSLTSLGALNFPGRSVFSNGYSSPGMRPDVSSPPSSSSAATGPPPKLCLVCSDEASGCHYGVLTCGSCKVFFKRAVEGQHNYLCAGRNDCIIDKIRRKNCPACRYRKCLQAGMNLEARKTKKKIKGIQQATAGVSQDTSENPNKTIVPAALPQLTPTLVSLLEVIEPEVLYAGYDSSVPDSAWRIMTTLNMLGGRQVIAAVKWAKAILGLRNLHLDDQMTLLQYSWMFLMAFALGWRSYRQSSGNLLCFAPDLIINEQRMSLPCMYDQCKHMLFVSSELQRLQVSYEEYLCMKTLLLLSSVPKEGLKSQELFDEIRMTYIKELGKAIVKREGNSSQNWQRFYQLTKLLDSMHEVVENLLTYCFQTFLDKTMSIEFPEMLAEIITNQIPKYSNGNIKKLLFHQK
Description: Glucocorticoid receptor of the rat thymus
Male Sprague-Dawley EOPS rats, weighing 160 to 200 g are suprerenalectomized. 4 to 8 days after this ablation, the animals are killed, and the thymus is removed and homogenized at 0° C. in a buffer, Tris 10 mM, saccharose 0.25M, dithiothreitol 2 mM, HCl pH 7.4, using a Potter polytetrafluoroethylene-glass (1 g of tissue for 10 ml of TS). The homogenate is then ultra-centrifuged (105,000 g×90 min.) at 0° C. Aliquots of the supernatant so obtained are incubated at 0° C. for a time (t) with a constant concentration (T) of tritiated dexamethasone in the presence of increasing concentrations (0-2,500.10^-9 M) either of cold dexamethasone, or of the cold product under test. The concentration of bonded tritiated dexamethasone (B) is then measured in each incubate by the technique of adsorption on carbon dextran.
as §1, §2, §3, §4, §5

[3] = tested on: thymocytes of suprarenalectomized rats; experiment: Antiglucocorticoid activity: inhibition of the effect of dexamethasone on tritiated uridine incorporation in thymocytes; assay type: cell-based; conditions: Rattus norvegicus, Thymocyte, 5.10^-8 M dexamethasone, 37° C., 30 hours; for inhibition at 1 µM: product at 10^-6 M; for inhibition at 0.1 µM: product at 10^-7 M; for inhibition at 0.01 µM: product at 10^-8 M
Description: II. Antiglucocorticoid activity
The technique used derives from the method described by Dausse et Col. in "Molecular Pharmacology", 13, 948-953, (1977) ("the relationship between glucocorticoid structure and effects upon Thymocytes") for the thymocytes of mice.
The thymocytes of suprarenalectomized rats are incubated at 37° C. for 30 hours in a nutritive medium containing 5.10^-8 M of dexamethasone in the presence or not of a product being studied, at different concentrations. Tritiated uridine is added, and the incubation is continued for one hour. The incubates are cooled, and treated with a 5% solution of trichloroacetic acid, then filtered on Whatman GF/A paper, and washed three times with a 5% trichloroacetic acid solution. The radio-activity retained by the filter is determined.
The products of examples 1 to 4 oppose this effect.

[4] = tested on: thymocytes of suprarenalectomized rats; conditions: general statement on glucocorticoids, in particular dexamethasone; cited from earlier work

SMILES | Relative bonding affinity (RBA), Progestogen, 2 H [1] | Relative bonding affinity (RBA), Progestogen, 24 H [1] | Relative bonding affinity (RBA), Glucocorticoid, 4 H [2] | Relative bonding affinity (RBA), Glucocorticoid, 24 H [2] | affinity for the progestogen receptor (in words) ([1]; conclusion from RBA) | affinity for the glucocorticoid receptor (in words) ([2]; conclusion from RBA) | inhibition at 1 µM [3] [%] | inhibition at 0.1 µM [3] [%] | inhibition at 0.01 µM [3] [%] | incorporation of tritiated uridine (in words) [4]
CN(C)c1ccc(C2CC3(C)C(CCC34C=CCO4)C3CCC4=CC(=O)CCC4=C23)cc1 (stereo not drawn) [Example 2, (17 R) 11-beta-[4-(dimethylamino)phenyl]-spiro (estra-4,9-dien-17,27-(5H)-furan)-3-one] | 23 | 222 | 142 | 96 |  |  | 32 | 18 | 0 | 
C[C@@H]1C[C@H]2[C@@H]3CCC4=CC(=O)C=C[C@]4(C)[C@@]3(F)[C@@H](O)C[C@]2(C)[C@@]1(O)C(=O)CO [dexamethasone] |  |  |  |  |  |  |  |  |  | reduction in the incorporation of tritiated uridine
CSc1ccc(C2CC3(C)C(CCC34C=CCO4)C3CCC4=CC(=O)CCC4=C23)cc1 [Example 3, (17R) 11-beta-[4-(methylthio)phenyl]-spiro(estra-4,9-dien-17,2'-(5H)-furan)-3-one] | 35 | 242 | 56 | 41 |  |  | 84 | 12 | 0 | 

More lines, main results first:

Relative bonding affinity (RBA), Progestogen, 2 H [1] | Relative bonding affinity (RBA), Progestogen, 24 H [1] | Relative bonding affinity (RBA), Glucocorticoid, 4 H [2] | Relative bonding affinity (RBA), Glucocorticoid, 24 H [2] | affinity for the progestogen receptor (in words) ([1]; conclusion from RBA) | affinity for the glucocorticoid receptor (in words) ([2]; conclusion from RBA) | SMILES | inhibition at 1 µM [3] [%] | inhibition at 0.1 µM [3] [%] | inhibition at 0.01 µM [3] [%] | incorporation of tritiated uridine (in words) [4]
78 | 388 | 69 | 39 | very marked affinity | very marked affinity | CSc1ccc(C2CC3(C)C(CCC34CCCO4)C3CCC4=CC(=O)CCC4=C23)cc1 [Example 4, (17R) 4',5'-dihydro-11-beta-[4-(methylthio)phenyl]-spiro(estra-4,9-dien-17,2'-(3H)-furan)-3-one] | 80 | 21 | 0 | 
62 | 307 | 118 | 48 |  |  | CN(C)c1ccc(C2CC3(C)C(CCC34CCCO4)C3CCC4=CC(=O)CCC4=C23)cc1 (stereo not shown) [Example 1] | 125 | 51 | 11 | 
